Patent publication US20050281891A1, “Testosterone stimulant” (Ecobio, Inc., priority 2004, published 2005)

Test system: systemic testosterone levels
Experiment: Testosterone stimulation in rats: iron, chitosan and iron chitosan chelate vs placebo
Type: in vivo, Sprague Dawley rats
Details: 8-week old rats, oral 200 μL twice a day for 7 days; 0.12 wt % iron lactate, 1 wt % chitosan or 1 wt % iron chitosan chelate
Experimental: The effects of an iron chitosan chelate, chitosan, and iron on systemic testosterone levels in test groups of 8-week old Sprague Dawley rats is observed and compared to a control group. Each of the groups includes 8 rats. The rats of each group are orally administered a liquid composition twice a day, where group 1 receives a carrier composition in the form of a placebo, group 2 receives the carrier enhanced with 200 μL of 0.12 wt % iron lactate, group 3 receives the carrier enhanced with 200 μL of 1 wt % chitosan having a weight average molecular weight of 19,500 Mw, and group 4 receives the carrier enhanced with 200 μL of 1 wt % iron chitosan chelate (chitosan weight average molecular weight 19,500 Mw). The effects of the iron, chitosan, and iron chitosan chelate in systemic testosterone levels are compared to the systemic testosterone levels of the rats administered with the carrier placebo alone. After 7 days of dosing the 4 rat groups twice per day, the impact of the test groups compared to the control group on the rats testosterone levels is recorded, and is set forth in Table 1.

CC(O)C(=O)[O-].CC(O)C(=O)[O-].[Fe+2] (centres unmarked) [Iron, iron lactate]
% Increase from Placebo: ˜0% | Testosterone Level: 358.1 ± 23.6 (pg/100 μL)
